In paper PMC5354814, “In silico and in vitro drug screening identifies new therapeutic approaches for Ewing sarcoma” (Oncotarget, 2016):
Where a name gives a salt, the structure may show the parent alone. Read-outs that look alike come from different tables or passages of the source.

Legend:
Type in all cases: cell-based
TC-71 = assay: Hits validation, dose-response cell proliferation (CellTiter-Glo)
Protocol: (§1) For hits validation and combination study, cells were harvested and aliquoted into 384-well plates at concentrations of 750–1,500 cells per well in a total of 20 μl/well using a Matrix Wellmate (Thermo Scientific). Five μl of culture media containing either vehicles or drug were added to each well the next day (drug concentrations range from 1 nmol/L to 50 μmol/L). For combination study, selected drugs were archived in robotically accessible plates, to which media was added in preparation for addition to master plates by a Nimbus 96 liquid-dispensing workstation (Hamilton). Liquid transfers to dilution and assay plates were handled using the same workstation. Each 384-well master plate contained four 9 by 9 dose-matrix blocks, with eight serial two-fold dilutions (concentrations range from 7.8 nmol/L to 1 μmol/L). Additional wells were reserved for untreated, and vehicle-treated control wells. Cell proliferation was evaluated using Cell-Titer Glo® reagents (Promega). IC50 values were determined for each drug using SigmaPlot (Systat Software). The combination index values were calculated using SigmaPlot (Systat Software) and CompuSyn.

RD-ES [1] = assay: as above
Protocol: as §1

A673 [2] = assay: as above
Protocol: as §1

COG-E-352 = assay: as above
Protocol: as §1

CHLA-258 = assay: as above
Protocol: as §1

Hs 822.T. = assay: as above
Protocol: as §1

Hs 863.T. = assay: as above
Protocol: as §1

SK-ES-1 [3] = assay: as above; details: 12-point dose-response 50 μmol/L to 1 nmol/L, mean ± SD
Protocol: as §1

Hs 919.T. [4] = assay: as above
Protocol: These drugs were chosen based on their known mechanisms and safety profiles. We also tested the synergy between these drug hits (Supplementary Figures S6–S11). […] We evaluated the anti-proliferation effect in combination treatments using the EWS and control cell lines.
as §1

RD-ES [5] = assay: In vitro high-throughput screen of FDA-approved drug library (CellTiter-Glo); details: RD-ES; 1 μmol/L drug, 72 hours; read-out: % Inhibition RD-ES
Protocol: (§2) We screened, in parallel to the three computational approaches, an FDA-approved drug library containing 2,316 drugs (1,536 unique chemical entities). […] The drug screening study protocol employed is summarized in Supplementary Table S1.
(§3) Cells were grown to 80–90% confluence, harvested and aliquoted into 384-well plates (black μClear microplates, Greiner bio-one, Germany) at concentrations of 750–1,500 cells per well in a total volume of 25 μl/well using a Matrix Wellmate (Thermo Scientific). Cells were cultured for 72 hours in a 5% CO2 atmosphere at 37°C. Aliquots of 25 μl CellTiter-Glo® Reagent (Promega) were added directly to each well, the plates were incubated at room temperature for 20 min and the luminescence signal was measured according to the manufacturer's protocol. The measurements were made using Infinite® M200 Pro plate reader (Tecan, Switzerland). […] Data were normalized to percentage inhibition. […]
(§4) (A) Color scale for drug inhibition values. […]

A673 [6] = assay: as above; details: Homo sapiens, A673; 1 μmol/L drug, 72 hours; read-out: % Inhibition A673
Protocol: as §2, §3, §4

Hs 919.T. [7] = assay: as above; details: 1 μmol/L drug, 72 hours, control cell line; read-out: % Inhibition Hs 919.T.
Protocol: as §2, §3, §4

SK-ES-1 [8] = assay: as above; details: Homo sapiens, SK-ES1; 1 μmol/L drug, 72 hours; read-out: % Inhibition SK-ES-1
Protocol: as §2, §3, §4

[9] = TC-71, 12-point dose-response 50 μmol/L to 1 nmol/L, mean ± SD
[10] = RD-ES, 12-point dose-response 50 μmol/L to 1 nmol/L, mean ± SD
[11] = Homo sapiens, A673, 12-point dose-response 50 μmol/L to 1 nmol/L, mean ± SD
[12] = 12-point dose-response 50 μmol/L to 1 nmol/L, mean ± SD
[13] = control cell line, 12-point dose-response, mean ± SD

| Compound | IC50 (TC-71; [9]) | IC50 (RD-ES [1]; [10]) | IC50 (A673 [2]; [11]) | IC50 (COG-E-352; [12]) | IC50 (CHLA-258; [12]) | IC50 (Hs 822.T.; [13]) | IC50 (Hs 863.T.; [13]) | IC50 (SK-ES-1 [3]; Homo sapiens, SK-ES1) | IC50 (Hs 919.T. [4]; [13]) | inhibition at 1 µM (RD-ES [5]) | inhibition at 1 µM (A673 [6]) | inhibition at 1 µM (Hs 919.T. [7]) | inhibition at 1 µM (SK-ES-1 [8]) | also measured |
| --- | --- | --- | --- | --- | --- | --- | --- | --- | --- | --- | --- | --- | --- | --- |
| COc1cc2nc(N(C)CCCNC(=O)C3CCCO3)nc(N)c2cc1OC (stereo not shown) [Alfuzosin] | > 50 µM | > 50 µM | > 50 µM | > 50 µM | > 50 µM | > 50 µM | > 50 µM | > 50 µM | > 50 µM |  |  |  |  |  |
| COc1ccc(C[C@H]2NC[C@H](O)[C@H]2OC(C)=O)cc1 [Anisomycin] |  |  |  | 0.02 ± 0.01 µM | 0.08 ± 0.01 µM | 0.15 ± 0.05 µM | 0.2 ± 0.01 µM |  | 0.15 ± 0.02 µM |  |  |  |  | IC50 (TC-71; [12]): 0.04 ± 0.01 µM; IC50 (RD-ES [1]; [12]): 0.15 ± 0.02 µM; IC50 (A673 [2]; [12]): 0.12 ± 0.01 µM; IC50 (SK-ES-1 [3]): 0.2 ± 0.01 µM |
| CC(C)C[C@H](NC(=O)[C@H](Cc1ccccc1)NC(=O)c1cnccn1)B(O)O [Bortezomib] | 0.005 ± 0.0081 µM | 0.01 ± 0.001 µM | 0.01 ± 0.003 µM | 0.005 µM | 0.007 µM | 0.45 ± 0.08 µM | 0.18 ± 0.03 µM | 0.02 ± 0.002 µM | 0.17 ± 0.003 µM |  |  |  |  |  |
| CN(C)CCCN1c2ccccc2Sc2ccc(Cl)cc21 [Chlorpromazine] | 17.6 ± 8.63 µM | > 25 µM | 10.6 ± 2.15 µM | 16.1 ± 2.29 µM | 15.3 ± 4.55 µM | 16.8 ± 3.22 µM | 18.4 ± 3.07 µM | > 25 µM | 15.5 ± 2.09 µM |  |  |  |  |  |
| COc1cccc2c1C(=O)c1c(O)c3c(c(O)c1C2=O)C[C@@](O)(C(C)=O)C[C@@H]3O[C@H]1C[C@H](N)[C@H](O)[C@H](C)O1 [Daunorubicin] | 0.0046 ± 0.0004 µM | 0.05 ± 0.03 µM | 0.05 ± 0.02 µM | < 0.003 µM | < 0.003 µM | 0.15 ± 0.12 µM | 0.18 ± 0.08 µM | 0.04 ± 0.03 µM | 0.42 ± 0.15 µM |  |  |  |  |  |
| COc1cc2nc(N3CCN(C(=O)C4COc5ccccc5O4)CC3)nc(N)c2cc1OC (stereo not shown) [Doxazosin] | 22.5 ± 9.35 µM | > 25 µM | 5.6 ± 1.52 µM | 17.1 ± 6.58 µM | 16.1 ± 6.78 µM | 15.7 ± 2.12 µM | 14.6 ± 3.02 µM | 20.4 ± 5.87 µM | 18.5 ± 3.27 µM |  |  |  |  |  |
| COc1c2ccoc2nc2c(OC)c(OCC(O)C(C)(C)O)ccc12 (stereo not shown) [Evoxine] | > 50 µM | > 50 µM | > 50 µM | > 50 µM | > 50 µM | > 50 µM | > 50 µM | > 50 µM | > 50 µM |  |  |  |  |  |
| O=C(O)CCC(=O)c1ccc(-c2ccccc2)cc1 [Fenbufen] | > 50 µM | > 50 µM | > 50 µM | > 50 µM | > 50 µM | > 50 µM | > 50 µM | > 50 µM | > 50 µM |  |  |  |  |  |
| CO[C@@H]1[C@@H](OC(N)=O)[C@@H](O)[C@H](Oc2ccc3c(O)c(NC(=O)c4ccc(O)c(CC=C(C)C)c4)c(=O)oc3c2C)OC1(C)C [Novobiocin sodium] |  |  |  |  |  |  |  |  |  | 51% | 60% | < 50% | < 50% |  |
| CCOC(=O)C1=C[C@@H](OC(CC)CC)[C@H](NC(C)=O)[C@@H](N)C1 [Oseltamivir] |  |  |  |  |  |  |  |  |  | 95% | 95% | < 50% | 98% |  |
| CCCOc1ccc2nc(NC(=O)OC)[nH]c2c1 [Oxibendazole] |  |  |  |  |  |  |  |  |  | 80% | 64% | < 50% | 84% |  |
| CC(=O)O[C@H]1C(=O)[C@@]2(C)[C@H]([C@H](OC(=O)c3ccccc3)[C@]3(O)C[C@H](OC(=O)[C@H](O)[C@@H](NC(=O)c4ccccc4)c4ccccc4)C(C)=C1C3(C)C)[C@]1(OC(C)=O)CO[C@@H]1C[C@@H]2O [Paclitaxel/Taxol, Paclitaxel] |  |  |  |  |  |  |  |  |  | 97% | 96% | < 50% | 96% |  |
| Cc1cc(/C=C/c2ccc3cc(N(C)C)ccc3[n+]2C)c(C)n1-c1ccccc1 [Pyrvinium pamoate] |  |  |  |  |  |  |  |  |  | 98% | 84% | < 50% | 96% |  |
| Cc1nc2ccc(CN(C)c3ccc(C(=O)N[C@@H](CCC(=O)O)C(=O)O)s3)cc2c(=O)[nH]1 [Raltitrexed] |  |  |  |  |  |  |  |  |  | 80% | 59% | < 50% | 51% |  |
| CO[C@H]1C[C@@H]2CC[C@@H](C)[C@@](O)(O2)C(=O)C(=O)N2CCCC[C@H]2C(=O)O[C@H]([C@H](C)C[C@@H]2CC[C@@H](O)[C@H](OC)C2)CC(=O)[C@H](C)/C=C(\C)[C@@H](O)[C@@H](OC)C(=O)[C@H](C)C[C@H](C)/C=C/C=C/C=C/1C [Rapamycin] |  |  |  |  |  |  |  |  |  | 62% | 67% | < 50% | 51% |  |
| Nc1nc(=S)c2ncn([C@@H]3O[C@H](CO)[C@@H](O)[C@H]3O)c2[nH]1 [Thioguanosine] |  |  |  |  |  |  |  |  |  | < 50% | 73% | < 50% | 64% |  |
| Clc1ccccc1CN1CCc2sccc2C1 [Ticlopidine] |  |  |  |  |  |  |  |  |  | < 50% | 66% | < 50% | < 50% |  |
| CC[C@@]1(O)C(=O)OCc2c1cc1n(c2=O)Cc2cc3c(CN(C)C)c(O)ccc3nc2-1 [Topotecan HCl] |  |  |  |  |  |  |  |  |  | 97% | 97% | < 50% | 96% |  |
| O=c1[nH]c(=O)n([C@H]2C[C@H](O)[C@@H](CO)O2)cc1C(F)(F)F [Trifluridine] |  |  |  |  |  |  |  |  |  | 71% | < 50% | < 50% | < 50% |  |
| (R)-Apomorphine |  |  |  |  |  |  |  |  |  |  |  |  |  | IC50 (TC-71): 17.3 ± 2.21 µM; IC50 (RD-ES [1]): 7.85 ± 1.69 µM; IC50 (A673 [2]): 8.52 ± 2.14 µM; IC50 (COG-E-352): 4.01 ± 1.55 µM; IC50 (CHLA-258): 14.7 ± 6.86 µM; IC50 (Hs 822.T.): 14.3 ± 1.47 µM; IC50 (Hs 863.T.): 15.2 ± 2.19 µM; IC50 (Hs 919.T. [4]): 16.7 ± 3.02 µM |
